# Reference: patent publication US8486996B2, “Aroylfuranes and aroylthiophenes” (Basilea Pharmaceutica AG, priority 2006, dated 2013)
# Like-named read-outs stand apart in the source and are kept apart here.
# Legend:
# [1] = Hoechst 33342 nuclear staining (48 h read-out); format: cell-based
# Procedure, shortened: (§1)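 Adherent cells pre-spread 24 h before dosing, suspension cells dosed at seeding; compounds at 0.001 μM-10 μM final, 48 h at culture conditions. Hoechst 33342 (2-5 μg/ml) added for 30 min, then fluorescence microscopy scoring of apoptotic nuclear fraction and apoptosis-specific morphology, reported as scores A-D.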
# tumor cells [2] = experiment: Hoechst 33342 nuclear staining (48 h read-out); format: cell-based
# Procedure, shortened: as §1
# [3] = MTS proliferation assay (72 h read-out); format: cell-based; details: MRC5 cells
# Procedure, shortened: (§2)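 Viability was read by MTS absorbance at 492 nm after 3 h with reagent. Before that, cells plated a day earlier at 1.5×10^3–10^4 per well had been incubated with test compound at final concentrations of 0.001–10 μM for 72 h; activity is given as category scores A–D.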
# tumor cells [4] = experiment: MTS proliferation assay (72 h read-out); format: cell-based
# Procedure, shortened: as §2
# [5] = Mitochondrial membrane potential, JC-1 (read-out 48 h); format: cell-based; details: PBL, JC-1, 48 h
# Procedure, shortened: (§3)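 Tumor cells were treated with test compounds (adherent cells after 24 h of attachment, suspension cells immediately), medium holding up to 5% DMSO. After 48 h, JC-1 (2-5 μg/ml in added medium) was applied for 30 min. Fluorescence microscopy (FITC/TRITC filters) scored the fraction of cells with dissipated mitochondrial membrane potential as categories A-D.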
# tumor cells [6] = experiment: as above; format: cell-based; details: JC-1, 48 h
# Procedure, shortened: as §3
# HeLa = experiment: Colony Forming Units (read-out 6 days), HeLa; format: cell-based, human; details: colonies containing more than 30 cells, read-out: Colony Forming Units, score based on IC50, HeLa
# Description: (§4) Appropriate numbers of cells (100-150 cells, dependent on the cell type) are being seeded out in 1 ml complete medium into 6-well plates and allowed to attach for 48 h. The compounds are added after 48 h in 500 μl solution. The concentrations are in the range of 0.001 μM-3 μM. Control plates receive the same volume of medium containing the appropriate amount of DMSO. The plates are incubated for 5-7 days at cell culture conditions and subsequently scored for growth of colonies (containing more than 30 cells) by using a microscope.
# H460 = experiment: Colony Forming Units (read-out 6 days), H460; format: cell-based, human; details: colonies containing more than 30 cells, read-out: Colony Forming Units, score based on IC50, H460
# Description: as §4
# [7] = Homo sapiens, MRC5 cells, read-out: Hoechst 33342 nuclear staining EC50, MRC5
# [8] = PBL, read-out: Hoechst 33342 nuclear staining EC50, PBL
# [9] = Homo sapiens, HeLa cells, read-out: Hoechst 33342 nuclear staining EC50, HeLa
# [10] = Homo sapiens, Jurkat cells, read-out: Hoechst 33342 nuclear staining EC50, Jurkat
# [11] = Jily cells, read-out: Hoechst 33342 nuclear staining EC50, Jily
# [12] = Homo sapiens, HT-1080, HT1080 cells, read-out: MTS proliferation assay IC50, HT1080
# [13] = Homo sapiens, HeLa cells, read-out: MTS proliferation assay IC50, HeLa
# [14] = Homo sapiens, Jurkat cells, read-out: MTS proliferation assay IC50, Jurkat
# [15] = Jily cells, read-out: MTS proliferation assay IC50, Jily
# [16] = Homo sapiens, HeLa cells, read-out: Mitochondrial membrane potential (read-out 48 h) HeLa
# [17] = Homo sapiens, Jurkat cells, read-out: Mitochondrial membrane potential (read-out 48 h) Jurkat
# [18] = Homo sapiens, MCF7 cells, read-out: Mitochondrial membrane potential (read-out 48 h) MCF7
# [19] = Jily cells, read-out: Mitochondrial membrane potential (read-out 48 h) Jily
# [20] = MRC5 cells, read-out: Hoechst 33342 nuclear staining EC50, MRC5
# [21] = HeLa cells, read-out: Hoechst 33342 nuclear staining EC50, HeLa
# [22] = Jurkat cells, read-out: Hoechst 33342 nuclear staining EC50, Jurkat
# [23] = HT1080 cells, read-out: MTS proliferation assay IC50, HT1080
# [24] = HeLa cells, read-out: MTS proliferation assay IC50, HeLa
# [25] = Jurkat cells, read-out: MTS proliferation assay IC50, Jurkat
# [26] = HeLa cells, read-out: Mitochondrial membrane potential (read-out 48 h) HeLa
# [27] = Jurkat cells, read-out: Mitochondrial membrane potential (read-out 48 h) Jurkat
# [28] = MCF7 cells, read-out: Mitochondrial membrane potential (read-out 48 h) MCF7
SMILES,"EC50 [1, 8] [nM]",EC50 (tumor cells [2]; [9]) [nM],EC50 (tumor cells [2]; [10]) [nM],EC50 (tumor cells [2]; [11]) [nM],IC50 (tumor cells [4]; [12]) [nM],IC50 (tumor cells [4]; [13]) [nM],IC50 (tumor cells [4]; [14]) [nM],IC50 (tumor cells [4]; [15]) [nM],EC50 [5] [nM],EC50 (tumor cells [6]; [16]) [nM],EC50 (tumor cells [6]; [17]) [nM],EC50 (tumor cells [6]; [18]) [nM],EC50 (tumor cells [6]; [19]) [nM],"IC50 (HeLa; Homo sapiens, 144 h) [nM]","IC50 (H460; Homo sapiens, NCI-H460, 144 h) [nM]",EC50 (tumor cells [2]; [21]) [nM],EC50 (tumor cells [2]; [22]) [nM],"EC50 [1, 7] [nM]",IC50 ([3]; Homo sapiens) [nM],"EC50 [1, 20] [nM]",further results
"CCOc1ccccc1C(=O)c1oc2ccc(Cl)cc2c1N [Example 2, 3-Amino-5-chloro-2-(2-ethoxybenzoyl)-benzofuran]",> 1000,10 to 100,< 10,10 to 100,10 to 100,10 to 100,< 10,10 to 100,> 1000,10 to 100,< 10,100 to 1000,10 to 100,10 to 100,10 to 100,–,–,10 to 100,10 to 100,–,–
"CCOc1ccc([N+](=O)[O-])cc1C(=O)c1oc2ccc(Cl)cc2c1N [Example 3, 3-Amino-5-chloro-2-(2-ethoxy-5-nitrobezoyl)-benzofuran]",> 1000,< 10,< 10,< 10,< 10,< 10,< 10,< 10,> 1000,< 10,< 10,10 to 100,< 10,< 10,< 10,–,–,< 10,< 10,–,–
COCCOc1ccccc1C(=O)c1oc2ccc(Cl)cc2c1N [Example 6],> 1000,–,–,100 to 1000,–,–,–,100 to 1000,> 1000,–,–,–,100 to 1000,–,–,100 to 1000,100 to 1000,–,–,> 1000,IC50 [3]: > 1000 nM; IC50 (tumor cells [4]; [23]): > 1000 nM; IC50 (tumor cells [4]; [24]): 100 to 1000 nM; IC50 (tumor cells [4]; [25]): 100 to 1000 nM; EC50 (tumor cells [6]; [26]): 100 to 1000 nM; EC50 (tumor cells [6]; [27]): 100 to 1000 nM; EC50 (tumor cells [6]; [28]): 100 to 1000 nM; IC50 (HeLa): 100 to 1000 nM; IC50 (H460): 100 to 1000 nM
C#CCOc1ccccc1C(=O)c1oc2ccc(Cl)cc2c1N [Example 8],> 1000,–,–,100 to 1000,–,–,–,10 to 100,> 1000,–,–,–,100 to 1000,–,–,100 to 1000,10 to 100,–,–,> 1000,IC50 [3]: 100 to 1000 nM; IC50 (tumor cells [4]; [23]): 100 to 1000 nM; IC50 (tumor cells [4]; [24]): 100 to 1000 nM; IC50 (tumor cells [4]; [25]): 10 to 100 nM; EC50 (tumor cells [6]; [26]): 100 to 1000 nM; EC50 (tumor cells [6]; [27]): 100 to 1000 nM; EC50 (tumor cells [6]; [28]): 100 to 1000 nM; IC50 (HeLa): 100 to 1000 nM; IC50 (H460): 100 to 1000 nM
"Nc1c(C(=O)c2cccnc2N2CCOCC2)oc2ccc(Cl)cc12 [Example 37, 3-Amino-5-chloro-2-(2-morpholino-3-pyridylcarbonyl)-benzofuran]",> 1000,10 to 100,10 to 100,10 to 100,10 to 100,10 to 100,< 10,10 to 100,> 1000,100 to 1000,10 to 100,> 1000,10 to 100,10 to 100,10 to 100,–,–,> 1000,10 to 100,–,–

# More lines, main results first:
"EC50 [1, 8] [nM]",EC50 (tumor cells [2]; [9]) [nM],EC50 (tumor cells [2]; [10]) [nM],EC50 (tumor cells [2]; [11]) [nM],IC50 (tumor cells [4]; [12]) [nM],IC50 (tumor cells [4]; [13]) [nM],IC50 (tumor cells [4]; [14]) [nM],IC50 (tumor cells [4]; [15]) [nM],EC50 [5] [nM],EC50 (tumor cells [6]; [16]) [nM],EC50 (tumor cells [6]; [17]) [nM],EC50 (tumor cells [6]; [18]) [nM],EC50 (tumor cells [6]; [19]) [nM],"IC50 (HeLa; Homo sapiens, 144 h) [nM]","IC50 (H460; Homo sapiens, NCI-H460, 144 h) [nM]",EC50 (tumor cells [2]; [21]) [nM],EC50 (tumor cells [2]; [22]) [nM],SMILES,"EC50 [1, 7] [nM]",IC50 ([3]; Homo sapiens) [nM],"EC50 [1, 20] [nM]",further results
> 1000,10 to 100,10 to 100,10 to 100,–,–,–,–,> 1000,10 to 100,10 to 100,10 to 100,10 to 100,10 to 100,10 to 100,–,–,"C=CCOc1ccc(OC)cc1C(=O)c1oc2ccc(Cl)cc2c1N [Example 4, 3-Amino-5-chloro-2-(2-allyloxy-5-methoxybenzoyl)-benzofuran]",10 to 100,–,–,–
–,–,–,100 to 1000,–,–,–,10 to 100,> 1000,–,–,–,100 to 1000,–,–,100 to 1000,100 to 1000,C#CCOc1ccc(OC)cc1C(=O)c1oc2ccc(Cl)cc2c1N [Example 13],–,–,100 to 1000,IC50 [3]: 100 to 1000 nM; IC50 (tumor cells [4]; [23]): 100 to 1000 nM; IC50 (tumor cells [4]; [24]): 100 to 1000 nM; IC50 (tumor cells [4]; [25]): 10 to 100 nM; EC50 (tumor cells [6]; [26]): 100 to 1000 nM; EC50 (tumor cells [6]; [27]): 100 to 1000 nM; EC50 (tumor cells [6]; [28]): 100 to 1000 nM; IC50 (HeLa): 100 to 1000 nM; IC50 (H460): 100 to 1000 nM
